Non-standard residues stand in square brackets, D forms with d. Residues, ends and D or L forms follow the SMILES beside them. pGlu = O=C1CC[C@@H](C(=O)O)N1
Tests used:
Type in all cases: cell-based
apTKRPR-A = target: T1, apTKRPR-A (Aplysia californica, UniProt A0AAU7SSZ1); experiment: Receptor desensitization assay, protocol 1 (prolonged agonist exposure), apTKRPR-A; details: 10 μM, 2, 5, 10, 15, 30 and 60 min at 37 °C; fold increase over basal; n = 3
T1 sequence (A0AAU7SSZ1 1-398): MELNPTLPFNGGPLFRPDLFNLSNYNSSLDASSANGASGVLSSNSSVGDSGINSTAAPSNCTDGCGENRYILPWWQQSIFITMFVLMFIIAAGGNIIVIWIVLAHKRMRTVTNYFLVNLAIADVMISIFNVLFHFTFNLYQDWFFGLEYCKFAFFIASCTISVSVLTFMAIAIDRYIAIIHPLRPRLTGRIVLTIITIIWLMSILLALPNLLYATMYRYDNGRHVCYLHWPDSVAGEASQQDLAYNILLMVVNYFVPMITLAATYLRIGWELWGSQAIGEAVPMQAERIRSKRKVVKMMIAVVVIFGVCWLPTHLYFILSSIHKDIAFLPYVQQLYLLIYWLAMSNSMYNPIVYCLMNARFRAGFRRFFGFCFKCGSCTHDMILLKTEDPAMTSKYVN
Experimental: (§1) Therefore, we adopted two protocols to study the desensitization of apTKRPRs. The protocols were performed using a procedure modified from previous work ([87], [88], [89]).
Protocol 1 ([87], [88]): Under continuous (prolonged) stimulation with an agonist, we examined agonist-induced desensitization by quantifying the rate of IP1 accumulation. Specifically, CHO-K1 cells transiently expressing pcDNA3.1-apTKRPRs were incubated in the absence or presence of 10 μM (saturating concentration) apTKRP-2b for the different duration (2, 5, 10, 15, 30, and 60 min) at 37 °C, and intracellular concentrations of IP1 accumulation were measured. Data are presented as fold increase over basal IP1 concentration (Fig. S10).

apTKRPR-B = target: T2, apTKRPR-B (Aplysia californica, UniProt A0AAU7STS1); experiment: Receptor desensitization assay, protocol 2 (repeated agonist exposure), apTKRPR-B; details: 10 μM pretreatment 2-60 min without LiCl, wash, second 10 μM application for 15 min with LiCl; % of control; n = 5
T2 sequence (A0AAU7STS1 1-447): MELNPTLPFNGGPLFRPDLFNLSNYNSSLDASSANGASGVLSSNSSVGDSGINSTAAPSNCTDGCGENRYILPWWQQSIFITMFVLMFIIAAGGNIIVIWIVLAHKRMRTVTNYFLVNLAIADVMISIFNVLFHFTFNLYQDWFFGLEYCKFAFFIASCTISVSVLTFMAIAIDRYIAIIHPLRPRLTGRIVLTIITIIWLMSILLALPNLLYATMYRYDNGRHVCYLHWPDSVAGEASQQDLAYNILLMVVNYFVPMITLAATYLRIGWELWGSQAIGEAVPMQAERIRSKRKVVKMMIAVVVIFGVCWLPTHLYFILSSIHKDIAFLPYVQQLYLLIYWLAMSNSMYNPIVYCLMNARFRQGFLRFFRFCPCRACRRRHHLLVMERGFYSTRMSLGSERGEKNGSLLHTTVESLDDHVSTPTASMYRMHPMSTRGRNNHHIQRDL
Experimental: as §1
Protocol 2 ([89]): To simulate repeated stimulation with an agonist, we examined agonist-induced desensitization by quantifying the accumulation level of IP1 after two applications of the agonist/ligand. Because the IP1 accumulation assay involves using LiCl to stop the degradation of IP1, in this protocol, LiCl was applied only during the second application of the agonist. Specifically, to elicit desensitization, cells were first exposed to 10 μM apTKRP-2b in the absence of LiCl for various pretreatment durations (pretreatment stage/phase Ⅰ). After this agonist exposure, cells were washed (three times) rapidly with PBS (phase Ⅱ), and the wash was consistently performed in each experiment. Responsiveness of the receptor was then assessed by measuring intracellular concentrations of IP1 accumulation in response to a second application of 10 μM apTKRP-2b for 15 min in the presence of LiCl (phase Ⅲ) (Fig. S11).

apTKRPR-B 14A = apTKRPR-B 14A (Aplysia californica, UniProt A0AAU7STS1, S392A/S396A/S399A/S407A/S415A/S421A/S426A/S434A/T393A/T411A/T412A/T422A/T424A/T435A); experiment: IP1 accumulation assay, Ser/Thr-to-Ala mutant apTKRPR-B 14A
Chain of apTKRPR-B 14A (A0AAU7STS1 entry or part of it with the stated changes): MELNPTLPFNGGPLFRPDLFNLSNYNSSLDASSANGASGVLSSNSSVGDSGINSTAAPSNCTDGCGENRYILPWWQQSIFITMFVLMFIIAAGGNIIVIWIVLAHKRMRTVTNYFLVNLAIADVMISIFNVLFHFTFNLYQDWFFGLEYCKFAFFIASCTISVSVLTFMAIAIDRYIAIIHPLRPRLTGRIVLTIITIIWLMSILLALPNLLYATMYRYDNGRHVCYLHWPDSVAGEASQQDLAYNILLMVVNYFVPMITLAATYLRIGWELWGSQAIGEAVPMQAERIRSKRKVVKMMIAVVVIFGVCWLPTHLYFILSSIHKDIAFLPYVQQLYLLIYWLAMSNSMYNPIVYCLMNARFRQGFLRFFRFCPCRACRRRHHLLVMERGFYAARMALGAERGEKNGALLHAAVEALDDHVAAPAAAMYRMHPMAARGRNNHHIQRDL
Experimental: To express putative Aplysia receptors transiently in CHO-K1 cells, the cDNAs were subcloned into the pcDNA3.1(+) or pcDNA3.1(+)-FLAG (for ELISA experiments only, see “Cell surface expression analysis by ELISA” section) expression vector. On the day before transfection, the CHO-K1 cells were passaged into 60 mm diameter tissue culture–treated dishes, and the transfection experiments were performed when the cells were grown to 70 to 90% confluence. CHO-K1 cells were transfected with the cDNA plasmid constructs using Turbofect Transfection reagent (Thermo Fisher Scientific, R0531), following the manufacturer’s instructions. In brief, 4 μg of the putative receptor plasmids [in pcDNA3.1(+) or pcDNA3.1(+)-FLAG] were mixed with 400 μl of Opti-MEM (Gibco, 11058021), followed by the addition of 15 μl of TurboFect Transfection reagent and incubated at room temperature for 15 min. […]
The next day, transfected cells were trypsinized and reseeded in an opaque white 96-well half-area (Corning, 3688) or 384-well tissue culture–treated plates (Corning, 3570) at a density of 20,000 cells/well in F-12K and 10% FBS and incubated at 37 °C in a humidified incubator containing 5% CO2 overnight. On the third day, the activation of the putative receptors was detected by monitoring intracellular IP1 concentration using an IP-One Gq kit (Cisbio, 62IPAPEB) in Tecan Spark. […]

`CC(C)C[C@H](NC(=O)[C@H](Cc1c[nH]cn1)NC(=O)[C@@H]1CCCN1C(=O)[C@@H]1CCC(=O)N1)C(=O)NCC(=O)N[C@@H](Cc1ccccc1)C(=O)N[C@@H](Cc1c[nH]cn1)C(=O)NCC(=O)N[C@@H](CO)C(=O)N[C@@H](CCCNC(=N)N)C(N)=O` [apTKRP-2b] ([pGlu]PHLGFHGSR-NH2) was tested, and the “time course of IP1 accumulation, apTKRPR-A (protocol 1)” value (apTKRPR-A) was “initially increased and then reached a plateau”, the “IP1 accumulation after pretreatment, apTKRPR-B (protocol 2)” value (apTKRPR-B) was “IP1 accumulation was less after the second exposure” and the EC50 (apTKRPR-B 14A) was 24.5 nM.
